Assay results published in patent US11466028B2, “Fused 1,4-oxazepines as BET protein degraders” (THE REGENTS OF THE UNIVERSITY OF MICHIGAN, priority 2016, dated 2022).
Like-named read-outs stand apart in the source and are kept apart here.

What was measured:
AML3 = experiment: CellTiter-Glo cell viability, AML3 leukemia cell line; type: cell-based; settings: Table 5
Method: (§1) Cell growth inhibitory activity of representative Compounds of the Disclosure was determined using the CellTiter-Glo® Luminescent Cell Viability Assay. Cells were seeded in 384-well white opaque cell culture plates at a density of 2,000 cells/well with serially diluted compounds and incubated at 37° C. in an atmosphere of 95% air and 5% CO2 for 4 days. Cell viability was determined using the CellTiter-Glo® Luminescent Cell Viability Assay Kit (Promega, Madison, Wis.) according to the manufacture's instruction. Briefly, a volume of CellTiter-Glo® Reagent equal to the volume of cell culture medium was added to each well, and then the plates were incubated at room temperature for 10-20 minutes. The luminescent signal was measured using a Tecan Infinite M1000 multimode microplate reader (Tecan, Morrisville, N.C.). The half maximal inhibitory concentration (IC50) was calculated using the GraphPad Prism 5 software (GraphPad Software, La Jolla, Calif.).
(§2) Cpd. Nos. 18 and 19 were tested in various leukemia cell lines using the CellTiter-Glo® Luminescent Cell Viability Assay as described in Example 35.

WHIM24 breast cancer PDX = WHIM24 breast cancer PDX model; type: in vivo; settings: FIG. 5
Method: (§3) Representative Compounds of the Disclosure were tested in the RS4;11 and other xenograph models using similar techniques. […] No. 22 in the MDA-MB-231 TNBC model.

KG1 = experiment: CellTiter-Glo cell viability, KG1 leukemia cell line; type: cell-based; settings: Homo sapiens, KG-1, Table 5
Method: as §1, §2

BRD2 [1] = target: T1, BRD2 (Homo sapiens, UniProt P25440); experiment: Western blot, degradation of BRD2 in RS4;11 cells; type: cell-based; settings: 2.5 h, as compared to Compound A, FIG. 1
T1 construct: endogenous in cells; host or cells: RS4;11 and MOLM-13 leukemia cells
Method: (§4) Cells were treated with compounds at the indicated concentrations for 2.5 h and 3 h, respectively, for RS4;11 (see FIG. 1) and MOLM-13 (see FIG. 2) cells. Compound A is ((S)-3-benzyl-6,9-dimethyl-2-((1-methyl-1H-pyrazol-4-yl)ethynyl)-4H,6H-thieno[2,3-e][1,2,4]triazolo[3,4-c][1,4]oxazepine). See Cpd. No. 85 of U.S. Appl. No. 62/295,271.
(§5) Collected cells were lysed in lysis buffer [1% CHAPS, 150 mM NaCl, 20 mM Tris-HCl, 1 mM. EDTA, 1 mM EGTA, and COMPLETE proteinase inhibitor (Roche)] for 30 minutes on ice. Protein concentrations were determined using the Bio-Rad Protein Assay Dye reagent. Whole tumor lysates (20 μg) were separated on a 4-20% Novex gels (Invitrogen). The separated proteins were transferred to a PVDF membrane (BIO-RAD) and the PVDF membrane was then blotted with 5% Blotting-Grade Blocker (BIO-RAD) for 1 hour at room temperature. The primary antibodies used were BRD4 rabbit polyclonal antibody [Bethyl Laboratories, Inc, cat #A301] and BRD2 antibody.
(§6) The BIO-RAD Clarity Western ECL Substrates (BIO-RAD) and HyBlot CL film (Denville) were used for signal development and detection using a SRX-101A tabletop processor (Konica Minolta).

MOLM16 = experiment: CellTiter-Glo cell viability, MOLM16 leukemia cell line; type: cell-based; settings: Table 5
Method: as §1, §2

RS4;11 = experiment: CellTiter-Glo cell growth inhibition, RS4;11; type: cell-based; settings: Homo sapiens
Outline: (§7)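 Leukemia cells seeded at 2,000 cells/well with serially diluted compounds, 4 days at 37 °C, 5% CO2. Viability by CellTiter-Glo luminescence after 10-20 min at RT. IC50 calculated from the curves.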

AML5 = experiment: CellTiter-Glo cell viability, AML5 leukemia cell line; type: cell-based; settings: Table 5
Method: as §1, §2

MDA-MB-231 = experiment: CellTiter-Glo cell growth inhibition, MDA-MB-231; type: cell-based; settings: Homo sapiens, MDA-MB-231, 96 h, 4 days, Table 4
Outline: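 Cells seeded at 2,000 cells/well with serially diluted compound and incubated 4 days at 37 °C, 5% CO2. Viability read by CellTiter-Glo luminescence after 10-20 min at room temperature; IC50 calculated from the dose-response.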

RS4;11 xenograph tumors = experiment: RS4;11 xenograft model; type: in vivo, SCID mice; settings: SCID mice, i.v. 5 mg/kg at days 1, 3, 5 per week for two weeks, FIG. 4
Method: Cpd. Nos. 7 and 11 were dissolved in 10% PCP [10% PEG400 (Sigma), 3% Cremophor (Sigma), and 87% PBS (Gibco)]. The pH of the drug solutions were checked before use and adjusted with 0.5N NaOH to be between pH 6.5 and 8.0 for IV (intravenous) administration.
RS4;11 cells were maintained at 37° C., 95% air, 5% carbon dioxide in Improved MEM (Richter's Mod.) supplemented with 10% Fetal Bovine Serum, 100 units/ml of penicillin and 100 units/ml of streptomycin (GIBCO™, Invitrogen Corp.) and passaged twice weekly.
Tumor cells for xenografts were harvested with Trypsin (0.05%)-EDTA (0.53 mM) (GIBCO™, Invitrogen Corp.), growth medium added and cells placed on ice. Cells were washed once with 1×PBS (GIBCO™, Invitrogen Corp.) and re-suspended in PBS. After washing in PBS, cells were re-suspended in an ice cold mixture of 1:1 PBS and Matrigel (BD Biosciences, Invitrogen Corp.) for a final Matrigel protein concentration of 5 mg/ml. Cells at 5×10^6 cells in 0.1 ml were injected subcutaneously (s.c.) into the flank region of each mouse using a 25 gauge needle. All tumors were inoculated into SCID mice (strain:236) C.B-17 SCID, Charles River.
The size of tumors growing in the mice was measured in two dimensions using calipers. Tumor volume (mm^3)═(A×B^2)/2 where A and B are the tumor length and width (in mm), respectively. During treatment, tumor volume and body weight were measured three times a week. After the treatment was stopped, tumor volume and body weight was measured at least once a week.
Tumors were not allowed to exceed 10% of the animals total body weight. If an animal had two or more tumors the total weight of all tumors were not allowed to exceed 10% of the animal's total body weight. At the end of the experimental period or when tumor size approached 10% of the total body weight, the animal was euthanized.
Before treatment began, tumors were allowed to grow to 100-200 mm^3 in volume, at which point the blood vessel supplies to the tumor should have been well established. Mice with tumors within acceptable size range were randomized into treatment groups of seven mice. Cpd. Nos. 7 and 11 were given i.v. at 10 mg/kg at days 1,3, and 5 per week for two weeks. The Control group received vehicle alone. Cpd. Nos. 16, 18, 22 and 48 were given i.v. at 5 mg/kg at days 1, 3, and 5 per week for two weeks. The Control group received vehicle alone.
as §3

MOLM-13 = experiment: CellTiter-Glo cell growth inhibition, MOLM-13; type: cell-based; settings: Homo sapiens
Outline: as §7

MDA-MB-436 = experiment: WST-8 cell growth inhibition assay, MDA-MB-436; type: cell-based; settings: Homo sapiens, WST-8, Table 6
Method: Cpd. Nos. 7 and 18 were tested in various triple-negative breast cancer cell lines using the WST-8 cell growth assay.

BRD2 [2] = target: T1, BRD2; experiment: Western blot, degradation of BRD2 in MOLM-13 cells; type: cell-based; settings: 3 h, as compared to Compound A, FIG. 2
Method: as §4, §5, §6

T1 sequence (P25440 whole entry): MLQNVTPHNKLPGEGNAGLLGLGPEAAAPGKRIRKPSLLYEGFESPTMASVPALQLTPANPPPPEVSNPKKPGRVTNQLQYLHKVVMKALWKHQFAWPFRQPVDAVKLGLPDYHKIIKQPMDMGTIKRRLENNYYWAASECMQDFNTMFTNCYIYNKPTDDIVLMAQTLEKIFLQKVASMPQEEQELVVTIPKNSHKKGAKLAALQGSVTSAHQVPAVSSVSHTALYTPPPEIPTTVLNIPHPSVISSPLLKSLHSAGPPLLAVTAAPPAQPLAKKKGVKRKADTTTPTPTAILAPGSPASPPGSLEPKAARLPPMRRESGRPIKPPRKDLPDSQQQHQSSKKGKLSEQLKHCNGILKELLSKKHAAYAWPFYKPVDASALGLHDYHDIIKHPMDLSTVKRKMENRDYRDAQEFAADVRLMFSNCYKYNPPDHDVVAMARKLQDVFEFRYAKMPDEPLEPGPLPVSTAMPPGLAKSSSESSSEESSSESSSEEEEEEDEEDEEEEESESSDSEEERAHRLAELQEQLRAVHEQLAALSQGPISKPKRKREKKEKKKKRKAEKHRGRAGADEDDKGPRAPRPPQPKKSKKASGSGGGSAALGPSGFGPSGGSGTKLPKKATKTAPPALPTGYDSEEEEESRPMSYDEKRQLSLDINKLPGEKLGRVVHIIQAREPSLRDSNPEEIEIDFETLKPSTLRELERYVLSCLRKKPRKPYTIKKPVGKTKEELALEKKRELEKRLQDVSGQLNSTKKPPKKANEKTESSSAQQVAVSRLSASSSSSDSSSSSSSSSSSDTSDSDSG

Cc1nnc2n1-c1sc(C#Cc3cnn(CCCC#Cc4cccc5c4CN(C4CCC(=O)NC4=O)C5=O)c3)c(Cc3ccccc3)c1CO[C@H]2C (stereo partly drawn) [Cpd. No. 18, 3-(4-(5-(4-(((S)-3-benzyl-6,9-dimethyl-4H,6H-thieno[2,3-e][1,2,4]triazolo[3,4-c][1,4]oxazepin-2-yl)ethynyl)-1H-pyrazol-1-yl)pent-1-yn-1-yl)-1-oxoisoindolin-2-yl) piperidine-2,6-dione]
IC50 (AML3): 0.03 ± 0.006 nM
tumor regression in the WHIM24 breast cancer PDX model (WHIM24 breast cancer PDX): induces tumor regression
IC50 (KG1): 0.047 ± 0.02 nM
degradation of BRD2 protein (Western blot) (BRD2 [1]): induce degradation
IC50 (MOLM16): < 0.01 nM
IC50 (RS4;11; RS4-11, 96 h, 4 days, Table 4, read-out: RS-4, 11 IC50): 0.03 nM
IC50 (RS4;11; RS4-11, Table 5, read-out: IC50 (nM) RS4, 11): 0.004 ± 0.001 nM
IC50 (AML5): < 0.01 nM
IC50 (MDA-MB-231): 1.5 nM
tumor regression in RS4;11 xenograph tumors (RS4;11 xenograph tumors): induce tumor regression
IC50 (MOLM-13; MOLM-13, 96 h, 4 days, Table 4, read-out: MOLM-13 IC50): 1 nM
IC50 (MOLM-13; MOLM-13, Table 5, read-out: IC50 (nM) MOLM13): 0.5 nM
IC50 (MDA-MB-436): 1.52 ± 0.21 nM
degradation of BRD2 protein (Western blot) (BRD2 [2]): induce degradation
